System: C57BL/6J mice
Test: Conditioned place preference induced by the drug itself
Assay type: in vivo
Description: Conditioned place preference (CPP) is a widely used procedure for studying the potential addictive effect of drugs. CPP is based upon the tendency of rodents to approach a stimulus that has previously been paired with an incentive state induced by a drug. A drug that induces a CPP may be suspected to present reinforcing effects that could lead to addiction. Numerous addictive drugs, such as opiate agonists or stimulants induce a CPP and a behavioral sensitization.
The effect of mazindol on place preference was examined in C57BL/6J mice using a method similar to the one used by Schlussman et al. (9).
The second experiment consisted in determining the optimal dose of heroin which induces the most significant CPP. For this purpose, the CPP induced by heroin at 1.25, 2.5 and 5 mg/kg was examined.
(§1) Following the habituation session (on day 1), animals (N=72) were pseudo-randomly assigned to two groups, a Control group (N=12) and a Heroin group (N=60), in a way that there was no significant difference between the two groups for the total distance travelled in the apparatus and for the percentage of time spent and the percentage distance travelled in the grey compartment and in the striped compartment.
Animals received the following treatments immediately before drug sessions: • Control group: vehicle • Heroin group: heroin (1.25 mg/kg)
as §1, with “three” for “two”, “(N=12),” for “(N=12) and”, “(N=48) and a Mazindol group (N=12),” for “(N=60),”
Animals received the following treatments before drug sessions: • Control group: vehicle, i.p. immediately before session. • Heroin group: heroin (1.25 mg/kg), i.p. immediately before session. • MAZ 2 group: mazindol (2 mg/kg), i.p. 60 min before session.
Animals received the following treatments before preference session: • Control group: vehicle of mazindol, i.p. 60 min before testing. • Hero group: vehicle of mazindol, i.p. 60 min before testing. • Hero-Mz 1 group: mazindol (1 mg/kg), i.p. 60 min before testing. • Hero-Mz 2 group: mazindol (2 mg/kg), i.p. 60 min before testing. • Hero-A 1 group: D-amphetamine (1 mg/kg), i.p. 30 min before testing. • MAZ 2 group: vehicle of mazindol, i.p. 60 min before testing.

[1] = MAZ 2: mazindol 2 mg/kg i.p. 60 min before drug sessions, vehicle before preference session, day 12, mean

OC1(c2ccc(Cl)cc2)c2ccccc2C2=NCCN21 (centres unmarked) [Mazindol, 5-(4-chlorophenyl)-2,5-dihydro-3 H-imadazo[2,1-a]isoindol-5-ol]
Distance travelled in the drug-paired compartment [1]: 9013.0 cm | Distance travelled in the two compartments (Drug + Vehicle) [1]: 14858.2 cm | Distance travelled in the vehicle-paired compartment [1]: 5845.2 cm | Distance travelled, drug-paired minus vehicle-paired compartment [1]: 3167.8 cm | Time spent in the drug-paired compartment [1]: 1077.3 s | Time spent in the vehicle-paired compartment [1]: 722.7 s | Time spent, drug-paired minus vehicle-paired compartment [1]: 354.6 s | place preference induced by the drug (mazindol 2 mg/kg i.p. before drug sessions): induced a place preference
